Results reported in publication PMC12027946, “Ionic and Non-Ionic Counterparts Based on Bis(Uracilyl)Alkane Moiety with Highest Selectivity Towards Acetylcholinesterase for Protection Against Organophosphate Poisoning and Treating Alzheimer’s Disease” (International Journal of Molecular Sciences, 2025).

Legend:
BChE from human plasma = target: T1, BChE from human plasma (Homo sapiens, UniProt P06276); experiment: In vitro cholinesterase inhibition (Ellman), BuChE; format: biochemical; conditions: Table 2; human BuChE; read-out: IC50 BuChE
T1 construct: butyrylcholiesterase from human plasma; purchased Sigma-Aldrich; host or cells: human plasma
T1 sequence (P06276 29-602): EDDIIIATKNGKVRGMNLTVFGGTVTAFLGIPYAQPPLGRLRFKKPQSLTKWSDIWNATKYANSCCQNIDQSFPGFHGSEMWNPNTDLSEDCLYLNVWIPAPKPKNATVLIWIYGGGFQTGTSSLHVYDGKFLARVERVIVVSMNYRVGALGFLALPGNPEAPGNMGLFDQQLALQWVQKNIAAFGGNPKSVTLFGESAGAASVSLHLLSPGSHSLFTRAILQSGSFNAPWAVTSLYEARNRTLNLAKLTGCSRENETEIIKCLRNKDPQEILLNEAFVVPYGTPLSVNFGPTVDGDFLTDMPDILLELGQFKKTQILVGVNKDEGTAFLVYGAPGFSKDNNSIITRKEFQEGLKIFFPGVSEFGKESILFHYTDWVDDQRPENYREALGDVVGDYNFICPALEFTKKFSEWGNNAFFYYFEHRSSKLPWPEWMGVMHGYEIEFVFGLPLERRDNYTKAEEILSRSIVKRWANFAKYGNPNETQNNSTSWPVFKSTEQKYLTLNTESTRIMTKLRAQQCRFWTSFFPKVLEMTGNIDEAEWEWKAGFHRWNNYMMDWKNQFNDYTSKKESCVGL
Method: Inhibitory activities of the tested compounds against AChE and BChE were measured according to Ellman et al.. Enzyme-catalysed hydrolysis of ATCHh was carried out at 25 °C in 0.1 M phosphate buffer (pH 8.0) containing 0.25 U AChE, 1 mM ATCHh as substrates, and 0.1 mM of DTNB. In experiments with BuChE, 0.1 M phosphate buffer (pH 7.0) and BuTChh as a substrate were used. The tested compounds were pre-incubated with the enzyme for two minutes prior to the addition of the substrate and the subsequent recording of hydrolysis kinetics. […] A sample without an inhibitor was used as a control (100% cholinesterase activity). A sample without a substrate was used as a blank. Experiments were performed in triplicate.

human BuChE = target: T2, human BuChE (Homo sapiens, UniProt P06276); experiment: Inhibition constants (Dixon and Cornish–Bowden plots), BuChE; format: biochemical
T2 construct: butyrylcholiesterase from human plasma; purchased Sigma-Aldrich; host or cells: human plasma
T2 sequence (P06276 29-602): as above
Method: Experiments were performed using four different concentrations of ATCh as a substrate for AChE, and with BuTCh as a substrate for BuChE. According to the analysis of Dixon and Cornish–Bowden plots for bisuracil 2b, AChE and BuChE inhibition is of a mixed type characterised both by competitive inhibition (Kci) and uncompetitive inhibition (Kui) components. For AChE, Kci was determined to be 55.7 ± 8.1 pM while Kui = 156 ± 18 pM (Figure 3A,B), and Kci = 0.13 ± 0.02 mM while Kui = 0.7 ± 0.06 mM for BuChE (Figure 3C,D). Inhibition of AChE and BuChE by bisuracil 3c was of a mixed type. For the AChE constant, Kci was 0.7 ± 0.04 nM while Kui 4.45 ± 1.76 nM (Figure 4A,B); for the BuChE constant, Kci = 0.04 ± 0.007 мM while Kui = 0.68 ± 0.08 мM (Figure 4C,D).
A UV-1800 Shimadzu (Shimadzu Co., Kyoto, Japan) spectrophotometer was utilised to conduct the measurements. The final enzyme concentration in the assays was in the picomolar range. In order to ascertain the levels of spontaneous hydrolysis of the enzyme and substrate in the absence of an inhibitor, controls were performed for each substrate concentration. The change in absorption was then recorded over a period of three minutes. The inhibition constants were determined from a Dixon plot and Cornish–Bowden transformation.

brain AChE = target: T3, brain AChE (Mus musculus, UniProt P21836); experiment: Brain AChE inhibition in vivo; design: species or system mice; conditions: ip
T3 construct: Whole-brain homogenates were prepared in a Potter homogeniser; from tissue; host or cells: whole brain of CD-1 mice
T3 sequence (P21836 32-614): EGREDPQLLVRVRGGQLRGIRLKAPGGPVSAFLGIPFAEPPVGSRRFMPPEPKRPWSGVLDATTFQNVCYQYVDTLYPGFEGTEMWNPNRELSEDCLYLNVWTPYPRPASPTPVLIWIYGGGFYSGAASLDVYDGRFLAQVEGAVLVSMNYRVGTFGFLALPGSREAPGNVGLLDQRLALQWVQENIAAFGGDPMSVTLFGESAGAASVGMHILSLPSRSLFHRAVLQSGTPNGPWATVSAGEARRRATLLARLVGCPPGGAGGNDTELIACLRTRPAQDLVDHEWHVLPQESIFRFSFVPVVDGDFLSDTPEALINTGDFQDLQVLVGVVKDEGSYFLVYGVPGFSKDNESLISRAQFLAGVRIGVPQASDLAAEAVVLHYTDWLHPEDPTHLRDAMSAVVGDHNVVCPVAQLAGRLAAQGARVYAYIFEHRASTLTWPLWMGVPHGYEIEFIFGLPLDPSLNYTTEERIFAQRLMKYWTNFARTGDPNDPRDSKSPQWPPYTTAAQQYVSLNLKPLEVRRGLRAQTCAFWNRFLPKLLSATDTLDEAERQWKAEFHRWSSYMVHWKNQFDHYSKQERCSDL
Method: Bisuracil 3c was identified as the most promising for the inhibition of brain AChE in vivo. […].
For the brain AChE inhibition assay, the brains of mice were removed 30 min after i.p. injection of the tested compound (experimental group, n = 6 mice) or following i.p. vehicle injection (control group, n = 6 mice). The brains were subsequently frozen in liquid nitrogen. Whole-brain homogenates were prepared in a Potter homogeniser with 0.05 M Tris–HCl, 1% Triton X–100, 1M NaCl, and 2 mM ethylenediaminetetraacetic acid (pH 7.0; 4 °C; 1 part brain to 2 parts of buffer). The homogenate was centrifuged (14,000× g rpm; t = 4 °C) for 10 min using an Eppendorf 5430R centrifuge with an FA–45–30–11 rotor (Eppendorf AG, Hamburg, Germany). AChE activity in brain homogenates was measured using the method described by Dingova et al. with modification. […] The production of yellow 5–thio–2–nitro–benzoate anion resulting from the reduction of DTNB by thiocholine (the product of enzymatic hydrolysis of ATCH) was measured spectrophotometrically using a Shimadzu UV-1800 spectrophotometer (Shimadzu Co., Kyoto, Japan) according to Ellman’s method. The rate of thiocholine production over 20 min (from 10 to 30 min) was calculated. […] AChE activity was expressed in relation to the amount of total protein, which was determined by the Bradford method.

`CCN(CCCCCn1c(=O)ccn(CCCCCn2c(C)cc(=O)n(C)c2=O)c1=O)Cc1ccccc1C#N` [3c] was tested, and the IC50 (BChE from human plasma) was 28 µM, the “Kui (uncompetitive inhibition constant), BuChE” value (human BuChE; BuTCh as substrate) was 0.68 ± 0.08 мM and the Ki (human BuChE; BuTCh as substrate, read-out: Kci (competitive inhibition constant), BuChE) was 40 ± 7 µM. For the same compound, the “type of BuChE inhibition” value (human BuChE; Dixon and Cornish–Bowden plots) was “mixed type”, the inhibition at 5 mg/kg (brain AChE) was 14.9 ± 3.8% and the inhibition at 10 mg/kg (brain AChE) was 54.2 ± 6.6%.
